# Reference: patent publication US4444769A, “Antihypertensive diuretic combination composition and associated method” (Mylan Pharmaceuticals, Inc., priority 1983, dated 1984)
# Key:
# [1] = test system: hypertensive individuals who had become hypokalemic
# Procedure: In an effort to determine the minimum amount of triamterene needed to reverse the hypokalemia precipitated by hydrochlorothiazide, each subject was continued on hydrochlorothiazide, 50 mg/day administered in a separate tablet, and was also given one of the following daily dosages of triamterene, administered in suspension form throughout the testing period: 0 mg, 25 mg, 50 mg, 75 mg, and 100 mg.
# [2] = administration of 100 mg; differently formulated compositions; cited from earlier work
smiles,measurement,setting,value
"Nc1nc(N)c2nc(-c3ccccc3)c(N)nc2n1 [triamterene, 2,4,7-triamino-6-phenylpteridine]","reversal of hydrochlorothiazide-induced hypokalemia, response",[1]; about 75 mg triamterene with 50 mg hydrochlorothiazide,near maximal response
same,effectiveness for reversing hydrochlorothiazide-induced hypokalemia,[1]; upper ranges of the doses tested,particularly large in the upper ranges of the doses tested
same,"limit in absorptive capacity of the gastrointestinal tract, mean",[2],~39%
